# Test results reported in patent US7122569B2, “Ethylene glycol esters as photoactive agents” (priority 1997, dated 2006).
# Key:
# [1] = test system: L1210 cells; assay: In vitro photocytotoxicity on L1210 cells, 690 nm light 5 J/cm^2, MTT; type: cell-based, murine; settings: 690 nm 5 J/cm^2
# Method: (§1) Either L1210 cells or the dendritic cell line D2SC/1 was incubated for one hour at 37° C. with either A-EA6 or BPD-MA. After removal of excess drug, the cells were exposed to 690 nm light at 5 J/cm^2 light. Cell survival was determined 18–24 hours later using the MTT colorimetric assay described in Example 5. Percent cells killed was calculated by reference to cells exposed to light only. […] The open circles represent A-EA6 plus serum; the closed circles represent BPD-MA plus serum; open squares represent A-EA6 in the absence of serum; and closed squares represent BPD-MA in the absence of serum.
# [2] = test system: mitogenic pathway kinase p70 S6K; assay: PDT effect on mitogenic pathway kinase in HL-60 cells; type: cell-based; settings: sublethal concentrations
# Description: (§2) The conditions of the study set forth in Example 11 were repeated using HL-60 cells as the target and comparing the effects of A-EA6 and BPD-MA on cytotoxicity, on the mitogenic pathway kinase p70 S6K, and on the stress pathway kinases c-jun and HSP27.
# [3] = test system: HL-60 cells; assay: DNA fragmentation in HL-60 cells after PDT; type: cell-based
# [4] = test system: dendritic cell line D2SC/1; assay: In vitro photocytotoxicity on dendritic cell line D2SC/1, 690 nm light 5 J/cm^2, MTT; type: cell-based; settings: dendritic cells, 5% fetal calf serum, 690 nm 5 J/cm^2
# Method: as §1
# [5] = test system: stress pathway kinases c-jun and HSP27; assay: PDT effect on stress pathway kinases in HL-60 cells; type: cell-based; settings: sublethal concentrations
# Description: as §2
# [6] = test system: M1 tumors; assay: In vivo photodynamic therapy in mice harboring M1 tumors, tumor-free on day 7; settings: 1 mg/kg IV, 50 J/cm^2 690 nm
# Description: This was followed by whole body irradiation with 50 J/cm^2 of 690 nm laser light at various times after administration of the drug.
# [7] = test system: MHC I receptors; assay: Surface expression of MHC I receptors on dendritic cells after PDT, flow cytometry; type: cell-based; settings: 690 nm 5 J/cm^2, 3 hours post-treatment
# Method: The cells were treated with 690 nm light at 5 J/cm^2 and then labeled with the appropriate antibody 3 hours post-treatment and assessed by flow cytometry. The results were measured as the percent of the mean channel fluorescence intensity for light-treated control cells.
# [8] = test system: caspases; assay: Caspase activation in HL-60 cells after PDT; type: cell-based
# Method: The effect on caspase activation in HL-60 cells was also measured. […] This effect is desirable as it is associated with apoptosis. Using apoptosis to remove unwanted cells causes the least effect on surrounding normal cells and tissues.
# [9] = test system: antigen-induced ear swelling; assay: Immunomodulatory activity, whole-body PDT, suppression of ear swelling; type: in vivo, mice; settings: red LED light 15 J/cm^2
# Method: Flanks of control and test mice were painted with the antigen DMFB and their ears were challenged 5 days later by pasting with the same compound. […] The percent suppression of ear swelling was calculated in comparison to controls.
structure (smiles),measurement,setting,value
C=Cc1c(C)c2cc3nc(cc4[nH]c(cc5nc(cc1[nH]2)C(C)=C5CCC(=O)OCCO)c(CCC(=O)OCCO)c4C)C1(C)C3=CC=C(C(=O)OC)C1C(=O)OC (stereo not shown) [A-EA6],cytotoxicity compared with BPD-MA,[1]; absence of serum,comparable cytotoxicity to BPD-MA
same,cytotoxicity compared with BPD-MA,[1]; presence of serum,markedly more toxic
same,inhibition of mitogenic pathway kinases compared with BPD-MA,[2],stronger inhibition of the mitogenic pathway kinases
same,percent DNA fragmentation compared with BPD-MA,[3],effective at lower concentrations than BPD-MA
same,LD50,[4],2.7 ng/mL
same,activation of stress pathway kinases compared with BPD-MA,[5],stronger activation of the stress pathway kinases
same,Day 7 tumor-free animals,[6]; irradiation 15 min post i.v.,2/2
same,Day 7 tumor-free animals,[6]; irradiation 30 min post i.v.,6/6
same,reduction of MHC I mean channel fluorescence vs light-treated control cells,[7]; 1 ng/ml,approximately 25%
same,reduction of MHC I mean channel fluorescence vs light-treated control cells,[7]; 2.5 ng/ml,approximately 25%
same,caspase activation compared with BPD-MA,[8],stronger activation of caspases
same,Percent suppression of ear swelling,[9]; 0.3 mg/kg IV,59%
same,Percent suppression of ear swelling,[9]; 1.0 mg/kg IV,68%
